US4939137A, “Ring-fused thienopyrimidinedione derivatives” (Ortho Pharmaceutical Corporation, priority 1989, dated 1990)

What was measured:
[1] = system: spontaneously hypertensive rats (SHR); assay: Antihypertensive Activity: Spontaneously Hypertensive Rat (SHR test); assay type: in vivo, rat (male spontaneously hypertensive); conditions: p.o. or i.v.; for SHR TEST: change in mean arterial blood pressure: dose 2.5 mpk
Description: Mean arterial pressure and heart rate were monitored from directly cannulated animals. Compounds were administered p.o. or i.v. and blood pressure was recorded for various time intervals post dosing.
Blood pressure changes (expressed as change in control pressure and reported as delta % of control for each animal) were analyzed statistically using a one way analysis of variance with a Dunnett's test. P values less than 0.05 were considered significant.

[2] = biological target: alpha-1 adrenergic receptor; assay: Brain Alpha-1 Radioreceptor Assay (3H-prazosin); conditions: guinea pig brain membranes, 30 minutes, 30° C., read-out: RECEPTOR BINDING ALPHA-1 (IC50)
Description: Membrane fragments were prepared from the brains of mature female guinea pigs after removal of the corpus striata. The alpha-1 adrenergic receptor sites were labeled with ^3 H-prazosin. Membrane fragments, ^3 H-prazosin and an unlabeled test compound were incubated for 30 minutes at 30° C. Compound bound to the receptor site was separated from the remaining unbound radioligand by vacuum filtration. Specific binding was determined by the difference between total counts bound and counts bound in the presence of 10-^5 M phentolamine.

[3] = biological target: T1, 5HT2 receptor (Rattus norvegicus, UniProt P14842); assay: Brain Serotonin 5HT2 Radioreceptor Assay (3H-ketanserin); assay type: binding; conditions: rat frontal cortex membranes, 15 minutes, 37° C., read-out: RECEPTOR BINDING 5HT-2 (IC50)
T1 construct: Membrane fragments were prepared from the frontal cortex dissected from brains obtained from female rats; from tissue; host or cells: frontal cortex, female rats
T1 sequence (P14842 whole entry, the tested form may be a part): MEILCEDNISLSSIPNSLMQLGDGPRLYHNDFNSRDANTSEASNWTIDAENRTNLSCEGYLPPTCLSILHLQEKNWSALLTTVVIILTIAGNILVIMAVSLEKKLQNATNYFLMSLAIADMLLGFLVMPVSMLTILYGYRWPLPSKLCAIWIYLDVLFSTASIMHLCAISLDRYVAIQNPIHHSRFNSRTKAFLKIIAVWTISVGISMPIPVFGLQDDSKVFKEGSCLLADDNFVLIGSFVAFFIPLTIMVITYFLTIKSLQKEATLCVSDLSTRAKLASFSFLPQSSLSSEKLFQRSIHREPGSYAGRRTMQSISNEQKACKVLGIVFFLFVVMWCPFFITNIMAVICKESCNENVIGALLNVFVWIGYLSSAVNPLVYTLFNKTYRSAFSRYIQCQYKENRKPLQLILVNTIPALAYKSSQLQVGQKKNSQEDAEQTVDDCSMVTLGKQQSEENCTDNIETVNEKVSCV
Description: (§1) Membrane fragments were prepared from the frontal cortex dissected from brains obtained from female rats (~150 g). The 5HT2 sites were labeled with ^3 H-ketanserin. Membrane fragments, ^3 H-ketanserin and an unlabeled test compound were incubated for 15 minutes at 37° C. Compound bound to the receptor site was separated from the remaining unbound compound by vacuum filtration.
The ability of a nonlabeled compound to compete with ^3 H-ketanserin for binding sites was a measure of the compound's affinity for the 5HT2 receptor. Specific binding was determined by the difference between total counts bound and counts bound in the presence of 10^-6 M methysergide.
Data are presented as the IC50, the concentration of nonlabeled compound required to displace 50% of the ^3 H-ketanserin specifically bound to 5HT2 binding sites.

[4] = biological target: T2, 5HT1A receptor (Rattus norvegicus, UniProt P19327); assay: Brain Serotonin 5HT1A Radioreceptor Assay (3H-80H-DPAT); assay type: binding; conditions: rat frontal cortex membranes, 10 minutes, 37° C., read-out: RECEPTOR BINDING 5HT-1A (IC50)
T2 construct: Membrane fragments were prepared from the frontal cortex dissected from brains obtained from female rats; from tissue; host or cells: frontal cortex, female rats
T2 sequence (P19327 1-422): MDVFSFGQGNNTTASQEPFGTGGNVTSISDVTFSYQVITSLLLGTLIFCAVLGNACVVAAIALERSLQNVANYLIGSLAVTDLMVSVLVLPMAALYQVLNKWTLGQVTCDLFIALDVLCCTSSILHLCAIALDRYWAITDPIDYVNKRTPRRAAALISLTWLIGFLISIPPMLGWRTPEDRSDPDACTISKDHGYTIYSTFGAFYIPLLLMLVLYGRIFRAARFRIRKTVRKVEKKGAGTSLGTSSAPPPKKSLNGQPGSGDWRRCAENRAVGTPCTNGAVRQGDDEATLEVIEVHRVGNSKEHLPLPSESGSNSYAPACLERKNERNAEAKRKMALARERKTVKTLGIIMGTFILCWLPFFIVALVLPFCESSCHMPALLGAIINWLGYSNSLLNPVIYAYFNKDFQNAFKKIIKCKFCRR
Description: as §1, with “The 5HT1A” for “The 5HT2”, “^3 H-80H-dipropylaminotetralin (^3 H-80H-DPAT).” for “^3 H-ketanserin.”, “^3 H-80H-DPAT” for “^3 H-ketanserin”, “for 10” for “for 15”, “C. The tubes were then placed in an ice bath for an additional 10 minutes.” for “C.”
The ability of a nonlabeled compound to compete with ^3 H-80H-DPAT for binding sites was a measure of the compound's affinity for the 5HT1A receptor. Specific binding was determined by the difference between total counts bound and counts bound in the presence of 10^-5 M serotonin.
Data are presented at the IC50, the concentration of nonlabeled compound required to displace 50% of the ^3 H-80H-DPAT specifically bound to 5HT1A binding sites.

[5] = system: alpha adrenergic receptor; assay: Alpha-1 Adrenergic Blockage: Inhibition of Phenylephrine-Induced Increases in Blood Pressure in the Anesthetized Dog; assay type: in vivo; conditions: i.v., phenylephrine 10 μg/kg
From the text: Dogs were anesthetized and bilaterally vagotomized. A femoral artery and vein were cannulated for detection of diastolic blood pressure and drug administration, respectively. Percent inhibition of alpha adrenergic receptor antagonism was quantified by determining dose-response (increase in diastolic pressure) relationship of phenylephrine before and after various doses of the antagonist.

Row | Compound | SHR TEST: change in mean arterial blood pressure [1] | IC50 [2] | IC50 [3] | IC50 [4] | % INHIB OF PHENYLEPHRINE RESPONSE ([5]; dose 0.03 mpk) | % INHIB OF PHENYLEPHRINE RESPONSE ([5]; dose 0.003 mpk) | change in vivo at 5 mg/kg ([1]; Rattus norvegicus, dose 5 mpk, read-out: SHR TEST: change in blood pressure (delta % of control))
1 | COc1ccccc1N1CCN(CCn2c(=O)c3csc4c3n(c2=O)CCC4=O)CC1 [Example 1, 3,4,5,7,8,9-Hexahydro-4-[2-[4-(2-methoxyphenyl)piperazin-1-yl]ethyl]thieno[4,3,2-de]pyrido[1,2c]pyrimidine-3,5,9-trione] | -59 mm Hg | 18 nM | 6500 nM | 25 nM | 86% | – | –
2 | COc1ccccc1N1CCN(CCn2c(=O)c3csc4c3n(c2=O)CC=C4)CC1 [Example 24, 3,4,5,7-Tetrahydro-4-[2-[4-(2-methoxyphenyl)piperazin-1-yl]ethyl]thieno[4,3,2-de]pyrido[1,2-c]pyrimidine-3,5-dione] | -59.0 mm Hg | 23 nM | 2000 nM | 120 nM | 98% | – | –
3 | COc1ccccc1N1CCN(CCn2c(=O)c3csc4c3n(c2=O)CCNC4=O)CC1 [Example 25] | -58.0 mm Hg | 45 nM | 2000 nM | 48 nM | – | 94% | –
4 | COc1ccccc1N1CCN(CCn2c(=O)c3csc4c3n(c2=O)CCC4OC(=O)c2ccccc2)CC1 (centres unmarked) [Example 35, 9-Benzoyloxy-3,4,5,7,8,9-hexahydro-4-[2-[4-(2-methoxyphenyl)piperazin-1-yl]ethyl]thieno[4,3,2-de]pyrido[1,2-c]pyrimidine-3,5-dione] | – | 0.015 nM | 1500 nM | 130 nM | 89% | – | -16.6%
